Reference: publication PMC4392994, “Kinetic Characterization and Effect of Immobilized Thermostable β-Glucosidase in Alginate Gel Beads on Sugarcane Juice” (ISRN Biochemistry, 2014)

System: T1, β-glucosidase
T1 construct: recombinant, cloned and expressed in E. coli DH5alpha; extracellular, from culture supernatant; partially purified (ammonium sulfate, dialysis); EC 3.2.1.21
Assay: p-nitrophenol release at […] nm, Lineweaver-Burk plot
Assay type: biochemical, Bacillus subtilis
Conditions: free enzyme, partially purified; acetate buffer 100 mM, pH 5.0, 60 °C, 30 min; 1–15 mM substrate

Km: 3.6 mM
Structure (SMILES): O=[N+]([O-])c1ccc(O[C@@H]2O[C@H](CO)[C@@H](O)[C@H](O)[C@H]2O)cc1 [pNPG]
